In patent US20250049836A1, “PRODRUGS OF DEOXYNUCLEOSIDES FOR TREATMENT OF MITOCHONDRIAL DISEASES CAUSED BY UNBALANCED NUCLEOTIDE POOLS” (UCB Biosciences, Inc., priority 2021, published 2025):

Key:
dGK mutant fish = conditions: nucleoside supplementation (Munro, et al. 2019); cited from earlier work
MPV17^−/− mice = assay: qPCR measurements of mtDNA copy number in the liver of MPV17−/− mice; type: in vivo, mouse; conditions: treatment alone; summary statement
Method: • 2A. 2 litters from MPV17^−/− mouse (KO×KO) breeding pairs were used in the study. The experimental groups were set up as follows: • 1. - - - KO untreated (n=1) • 2. - - - KO treated with 109.35 mg/kg MT102C+104.2 mg/kg MT102G (n=3) • 3. - - - KO treated with 163.87 mg/kg MT103C+150.56 mg/kg MT103G (n=3) • 4. - - - KO treated with 75 mg/kg dC and 75 mg/kg dG (purchased from Sigma) (n=3) • 5. - - - KO treated with 144.9 mg/kg MT101G (n=2)
Treatment was started at day 7 and terminated at day 30. The treatment was performed by delivery into the oral cavity throughout the study. […] At day 30, animals were sacrificed and tissues collected. Liver, muscle, kidney, gut, heart and brain were flash frozen in liquid nitrogen. Blood was collected by heart puncture and plasma fractions stored at −80° C.
Results of qPCR measurements of mtDNA copy number in the liver tissue of treated and untreated mice are shown FIG. 7. • 2B. In order to compare results, WT (n=5), KO untreated (n=4) and KO treated with 20% MT101 (n=4) and 20% MT104 (n=4) from previous experiments were also included in the analysis. • 2C. Three other litters from KO x KO breeding pairs were used in a further study of nucleoside prodrug supplementation: • 1.—Litter 2 (L2): Born on Feb. 9, 2020 • 2.—Litter 3 (L3): Born on May 9, 2020 • 3.—Litter 4 (L4): Born on Aug. 9, 2020 […]
mtDNA copy number in liver was analyzed by RT-qPCR. […]

[1] = system: fibroblasts from patients with DGUOK mutations; conditions: cited from earlier work

Nc1nc2c(ncn2[C@H]2C[C@H](O)[C@@H](CO)O2)c(=O)[nH]1 [dG, 2′-deoxyguanosine]
mtDNA levels in dGK mutant fish (dGK mutant fish): decreased mtDNA levels
mtDNA copy numbers in dGK or MPV17 deficiency disorders (MPV17^−/− mice): sufficient to increase mtDNA copy numbers
mtDNA depletion after quiescence, previously demonstrated ([1]; 50 μM in cell culture medium): sufficient to prevent this depletion
mtDNA copy number ([1]; 50 μm added into culture broth (Camara, et al. 2014)): sufficient to increase the mtDNA copy number
